From patent US9718828B2 (MERCK SHARP & DOHME CORP., priority 2011, dated 2017)
Counter-ions that a name gives are not always drawn. Like-named read-outs stand apart in the source and are kept apart here.

Target: Btk enzyme (His-Btk) (Homo sapiens (Human), UniProt Q06187)
Assay: Btk enzyme activity, IMAP fluorescence polarization assay (Assay Method A)
[1] = read-out: EC50 Btk activity values - Assay Method A, IMAP-FP, 60 min pre-incubation, 5 μM ATP, class 100-1000 is given as ≧100 nM-<1 μM

Chain of Btk enzyme (His-Btk) (Q06187 whole entry): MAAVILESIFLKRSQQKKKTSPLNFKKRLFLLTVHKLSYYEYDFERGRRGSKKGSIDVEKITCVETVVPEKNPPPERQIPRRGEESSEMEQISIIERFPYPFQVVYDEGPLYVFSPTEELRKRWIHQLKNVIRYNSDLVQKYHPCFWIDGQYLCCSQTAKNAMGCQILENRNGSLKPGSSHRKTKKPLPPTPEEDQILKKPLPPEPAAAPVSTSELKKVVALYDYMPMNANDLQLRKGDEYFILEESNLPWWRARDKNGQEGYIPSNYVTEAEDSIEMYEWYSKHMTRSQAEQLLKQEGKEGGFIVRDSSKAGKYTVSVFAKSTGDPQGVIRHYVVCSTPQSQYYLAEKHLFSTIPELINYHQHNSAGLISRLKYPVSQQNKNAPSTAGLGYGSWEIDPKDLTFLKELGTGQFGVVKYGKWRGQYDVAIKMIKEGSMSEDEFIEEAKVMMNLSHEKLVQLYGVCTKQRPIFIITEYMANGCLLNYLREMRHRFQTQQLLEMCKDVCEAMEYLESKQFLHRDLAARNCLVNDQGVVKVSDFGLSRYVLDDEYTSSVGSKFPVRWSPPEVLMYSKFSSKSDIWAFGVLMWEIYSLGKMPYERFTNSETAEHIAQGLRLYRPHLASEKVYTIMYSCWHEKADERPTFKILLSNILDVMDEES
Protocol: Inhibition of kinase activity can be measured using the Immobilized Metal Assay for Phosphochemicals (IMAP) assay. IMAP is a homogeneous fluorescence polarization (FP) assay based on affinity capture of phosphorylated peptide substrates. IMAP uses fluorescein-labeled peptide substrates that, upon phosphorylation by a protein kinase, bind to so-called IMAP nanoparticles, which are derivatized with trivalent metal complexes.
Btk enzyme activity is measured using the IMAP (immobilized metal ion affinity-based fluorescence polarization) assay as outlined below.
Test compounds and Btk enzyme are pre-incubated 60 minutes at room temperature, before adding 5 μL/well of 200 nM Fluorescin labeled substrate peptide (Blk/Lyntide substrate, e.g. #R7188/#R7233, Molecular Devices) in KR-buffer. Final peptide substrate concentration in assay is 50 nM. […] Following incubation for 2 h at room temperature the enzyme reaction is stopped by adding 40 μL/well IMAP Progressive Binding Solution (according to suppliers (Molecular Devices) protocol using 75% 1× buffer A and 25% 1× buffer B with 1:600 Progressive Binding Solution). After 60 min incubation at room temperature in the dark the FP signal is read. […] Values are calculated as percentage of the difference in readout (ΔmPi) of the controls with and without ATP. EC50 values are determined by curve fitting of the experimental results using Activity Base.

Compound | EC50 [µM] | EC50 [1] [µM]
COCc1n[nH]c2c1CC(c1nc(-c3ccc(C(=O)Nc4cc(C(F)(F)F)ccn4)cc3)c3c(N)nccn13)CC2 (stereo not shown) [Example 250, 4-(8-amino-3-(3-(methoxymethyl)-4,5,6,7-tetrahydro-1H-indazol-5-yl)imidazo[1,5-a]pyrazin-1-yl)-N-(4-(trifluoromethyl)pyridin-2-yl)benzamide] | 0.01 to 0.1 | –
Nc1nccn2c(C3CC4CCC3N4C(=O)OCc3ccccc3)nc(-c3ccc(C(=O)Nc4ccccn4)cc3)c12 (stereo not shown) [Example 149, benzyl 2-(8-amino-1-(4-(pyridin-2-ylcarbamoyl)phenyl)imidazo [1,5-a]pyrazin-3-yl)-7-azabicyclo[2.2.1]heptane-7-carboxylate] | 0.01 to 0.1 | –
CC(C)(F)C(=O)N1CCC[C@@H](c2nc(-c3ccc(C(=O)Nc4cc(C5CC5)ccn4)cc3)c3c(N)nccn23)C1 [Example 64, (R)-4-(8-amino-3-(1-(2-fluoro-2-methylpropanoyl)piperidin-3-yl)imidazo[1,5-a]pyrazin-1-yl)-N-(4-cyclopropylpyridin-2-yl)benzamide] | < 0.01 | –
C[C@H]1CC[C@@H](c2nc(-c3ccc(C(=O)Nc4cc(C5CC5)ccn4)cc3)c3c(N)nccn23)CN1C(=O)C1CCC1 (relative stereo) [Example 197, 4-(8-amino-3-((cis)-1-(cyclobutanecarbonyl)-6-methylpiperidin-3-yl)imidazo[1,5-a]pyrazin-1-yl)-N-(4-cyclopropylpyridin-2-yl)benzamide, TFA salt] | – | < 0.01
CS(=O)(=O)N1CCC[C@@H](c2nc(-c3ccc(C(=O)Nc4ccccn4)cc3)c3c(N)nccn23)C1 [Example 49, (R)-4-(8-amino-3-(1-(methylsulfonyl)piperidin-3-yl)imidazo[1,5-a]pyrazin-1-yl)-N-(pyridin-2-yl)benzamide] | 0.1 to 1 | –
COc1cccc(-c2cnc(N)c3c(-c4ccc(C(=O)Nc5cc(C(F)(F)F)ccn5)cc4)nc([C@@H]4CCCN(C(=O)C5(C)COC5)C4)n23)c1 [Example 320, (R)-4-(8-amino-5-(3-methoxyphenyl)-3-(1-(3-methyloxetane-3-carbonyl)piperidin-3-yl)imidazo[1,5-a]pyrazin-1-yl)-N-(4-(trifluoromethyl)pyridin-2-yl)benzamide] | 0.01 to 0.1 | –
Nc1nccn2c([C@@H]3CCC[C@@H](NC(=O)C4CCC4)C3)nc(-c3ccc(C(=O)Nc4cc(C(F)(F)F)ccn4)cc3)c12 (relative stereo) [Example 171, 4-(8-amino-3-((trans)-3-(cyclobutanecarboxamido)cyclohexyl)imidazo[1,5-a]pyrazin-1-yl)-N-(4-(trifluoromethyl)pyridin-2-yl)benzamide] | – | < 0.01
CSCCC(=O)N1C[C@H](c2nc(-c3ccc(C(=O)Nc4cc(C(F)(F)F)ccn4)cc3)c3c(N)nccn23)CC[C@@H]1C (relative stereo) [Example 195, 4-(8-amino-3-((cis)-6-methyl-1-(3-(methylthio)propanoyl)piperidin-3-yl)imidazo[1,5-a]pyrazin-1-yl)-N-(4-(trifluoromethyl)pyridin-2-yl)benzamide, TFA salt] | – | < 0.01
Cc1nnc(C(=O)N2CCC[C@@H](c3nc(-c4ccc(C(=O)Nc5cc(C6CC6)ccn5)cc4)c4c(N)nccn34)C2)o1 [Example 116, (R)-4-(8-amino-3-(1-(5-methyl-1,3,4-oxadiazole-2-carbonyl)piperidin-3-yl)imidazo[1,5-a]pyrazin-1-yl)-N-(4-cyclopropylpyridin-2-yl)benzamide] | – | < 0.01
Nc1nccn2c(N3CCC[C@@H](NC(=O)C4CC4)C3)nc(-c3ccc(C(=O)Nc4cc(C(F)(F)F)ccn4)cc3)c12 [Example 220, (R)-4-(8-amino-3-(3-(cyclopropanecarboxamido)piperidin-1-yl)imidazo[1,5-a]pyrazin-1-yl)-N-(4-(trifluoromethyl)pyridin-2-yl)benzamide] | – | < 0.01
N#Cc1ccnc(NC(=O)c2ccc(-c3nc(C4CCOC4)n4ccnc(N)c34)cc2)c1 (stereo not shown) [Example 33, 4-(8-amino-3-(tetrahydrofuran-3-yl)imidazo[1,5-a]pyrazin-1-yl)-N-(4-cyanopyridin-2-yl)benzamide] | 0.01 to 0.1 | –
CCCc1ccnc(NC(=O)c2ccc(-c3nc(N4CCC4)n4ccnc(N)c34)cc2)c1 [Example 208, 4-(8-amino-3-(azetidin-1-yl)imidazo[1,5-a]pyrazin-1-yl)-N-(4-propylpyridin-2-yl)benzamide] | – | < 0.01
CC(C)(C)C(=O)N1CCC[C@@H](c2nc(-c3ccc(C(=O)Nc4cc(C(F)(F)F)ccn4)cc3)c3c(N)nccn23)C1 [Example 76, (R)-4-(8-amino-3-(1-pivaloylpiperidin-3-yl)imidazo[1,5-a]pyrazin-1-yl)-N-(4-(trifluoromethyl)pyridin-2-yl)benzamide] | < 0.01 | –
CC1CCc2nc(NC(=O)c3ccc(-c4nc([C@H]5[C@@H]6COC[C@@H]65)n5ccnc(N)c45)cc3)sc2C1 (stereo partly drawn) [Example 32, 4-(8-amino-3-((1R,5S,6S)-3-oxabicyclo[3.1.0]hexan-6-yl)imidazo[1,5-a]pyrazin-1-yl)-N-(6-methyl-4,5,6,7-tetrahydrobenzo[d]thiazol-2-yl)benzamide, TFA salt] | 0.01 to 0.1 | –
CCNC(=O)N1CCC[C@@H](c2nc(-c3ccc(C(=O)Nc4cc(C5CC5)ccn4)cc3)c3c(N)nccn23)C1 [Example 63, (R)-3-(8-amino-1-(4-(4-cyclopropylpyridin-2-ylcarbamoyl)phenyl)imidazo [1,5-a]pyrazin-3-yl)-N-ethylpiperidine-1-carboxamide] | < 0.01 | –
CCCc1ccnc(NC(=O)c2ccc(-c3nc(C4CCOCC4)n4c(Cl)cnc(N)c34)cc2)c1 [Example 298, 4-(8-amino-5-chloro-3-(tetrahydro-2H-pyran-4-yl)imidazo[1,5-a]pyrazin-1-yl)-N-(4-propylpyridin-2-yl)benzamide] | – | < 0.01
Cc1nc(-c2ccc(C(=O)Nc3cc(C(F)(F)F)ccn3)cc2)c2c(N)ncc(C(=O)N(C)C)n12 [Example 293, 8-amino-N,N,3-trimethyl-1-(4-(4-(trifluoromethyl)pyridin-2-ylcarbamoyl)phenyl)imidazo[1,5-a]pyrazine-5-carboxamide] | ≥ 1 | –
C[C@H]1CC[C@@H](c2nc(-c3ccc(C(=O)Nc4cc(C(F)(F)F)ccn4)cc3)c3c(N)nccn23)CN1C(=O)C1CCC1(F)F (relative stereo) [Example 190, 4-(8-amino-3-((cis)-1-(2,2-difluorocyclobutanecarbonyl)-6-methylpiperidin-3-yl)imidazo[1,5-a]pyrazin-1-yl)-N-(4-(trifluoromethyl)pyridin-2-yl)benzamide, TFA salt] | – | < 0.01
COCCC(=O)N1C2CCC1C(c1nc(-c3ccc(C(=O)Nc4ccccn4)cc3)c3c(N)nccn13)C2 (stereo not shown) [Example 148, 4-(8-amino-3-(7-(3-methoxypropanoyl)-7-azabicyclo[2.2.1]heptan-2-yl)imidazo[1,5-a]pyrazin-1-yl)-N-(pyridin-2-yl)benzamide] | 0.01 to 0.1 | –
Nc1nccn2c([C@@H]3CCCN(C(=O)C4CCOC4)C3)nc(-c3ccc(C(=O)Nc4ccccn4)cc3)c12 (stereo partly drawn) [Example 56, 4-(8-amino-3-((3R)-1-(tetrahydrofuran-3-carbonyl)piperidin-3-yl)imidazo[1,5-a]pyrazin-1-yl)-N-(pyridin-2-yl)benzamide, TFA salt] | 0.01 to 0.1 | –
CCC(=O)N1CCC[C@@H](n2nc(-c3ccc(C(=O)Nc4cc(C(F)(F)F)ccn4)cc3)c3c(N)ncnc32)C1 [Example 271, (R)-4-(4-amino-1-(1-propionylpiperidin-3-yl)-1H-pyrazolo[3,4-d]pyrimidin-3-yl)-N-(4-(trifluoromethyl)pyridin-2-yl)benzamide] | – | < 0.01
CCCc1ccnc(NC(=O)c2ccc(-c3nc(C4CCOCC4)n4ccnc(N)c34)cc2)c1 [Example 24, 4-(8-amino-3-(tetrahydro-2H-pyran-4-yl)imidazo [1,5-a]pyrazin-1-yl)-N-(4-propylpyridin-2-yl)benzamide] | < 0.01 | –
Nc1nccn2c(N3CCCC(C(=O)N4CCOCC4)C3)nc(-c3ccc(C(=O)Nc4ccccn4)cc3)c12 (stereo not shown) [Example 229, 4-(8-amino-3-(3-(morpholine-4-carbonyl)piperidin-1-yl)imidazo[1,5-a]pyrazin-1-yl)-N-(pyridin-2-yl)benzamide, TFA salt] | 0.01 to 0.1 | –
N#Cc1ccc(C(=O)N2CCC[C@@H](c3nc(-c4ccc(C(=O)Nc5cc(C6CC6)ccn5)cc4)c4c(N)nccn34)C2)cn1 [Example 117, (R)-4-(8-amino-3-(1-(6-cyanonicotinoyl)piperidin-3-yl)imidazo[1,5-a]pyrazin-1-yl)-N-(4-cyclopropylpyridin-2-yl)benzamide .] | – | < 0.01
CC(C)(C#N)C(=O)N1CCC[C@@H](c2nc(-c3ccc(C(=O)Nc4ccccn4)cc3)c3c(N)nccn23)C1 [Example 108, (R)-4-(8-amino-3-(1-(2-cyano-2-methylpropanoyl)piperidin-3-yl)imidazo[1,5-a]pyrazin-1-yl)-N-(pyridin-2-yl)benzamide] | 0.01 to 0.1 | –
CCOC(=O)N1CCC[C@@H](n2nc(-c3ccc(C(=O)Nc4cc(C(F)(F)F)ccn4)cc3)c3c(N)ncnc32)C1 [Example 273, (R)-ethyl 3-(4-amino-3-(4-(4-(trifluoromethyl)pyridin-2-ylcarbamoyl)phenyl)-1H-pyrazolo[3,4-d]pyrimidin-1-yl)piperidine-1-carboxylate] | – | < 0.01
COCCC(=O)N1CCC[C@@H](c2nc(-c3ccc(C(=O)Nc4ccccn4)cc3F)c3c(N)nccn23)C1 [Example 284, 4-(8-amino-3-((R)-1-(3-methoxypropanoyl)piperidin-3-yl)imidazo[1,5-a]pyrazin-1-yl)-3-fluoro-N-(pyridin-2-yl)benzamide, TFA salt] | – | < 0.01
COCCC(=O)N1CCC2(CC1)CC2c1nc(-c2ccc(C(=O)Nc3ccccn3)cc2)c2c(N)nccn12 (stereo not shown) [Example 151, 4-(8-amino-3-(6-(3-methoxypropanoyl)-6-azaspiro[2.5]octan-1-yl)imidazo[1,5-a]pyrazin-1-yl)-N-(pyridin-2-yl)benzamide] | 0.1 to 1 | –
